Source: patent US8946198B2, “Estrogen replacement regimen” (priority 2002, dated 2015)

Legend:
progesterone receptors = biological target: T1, progesterone receptors (Homo sapiens, UniProt P06401); conditions: cited from earlier work
T1 sequence (P06401 1-933): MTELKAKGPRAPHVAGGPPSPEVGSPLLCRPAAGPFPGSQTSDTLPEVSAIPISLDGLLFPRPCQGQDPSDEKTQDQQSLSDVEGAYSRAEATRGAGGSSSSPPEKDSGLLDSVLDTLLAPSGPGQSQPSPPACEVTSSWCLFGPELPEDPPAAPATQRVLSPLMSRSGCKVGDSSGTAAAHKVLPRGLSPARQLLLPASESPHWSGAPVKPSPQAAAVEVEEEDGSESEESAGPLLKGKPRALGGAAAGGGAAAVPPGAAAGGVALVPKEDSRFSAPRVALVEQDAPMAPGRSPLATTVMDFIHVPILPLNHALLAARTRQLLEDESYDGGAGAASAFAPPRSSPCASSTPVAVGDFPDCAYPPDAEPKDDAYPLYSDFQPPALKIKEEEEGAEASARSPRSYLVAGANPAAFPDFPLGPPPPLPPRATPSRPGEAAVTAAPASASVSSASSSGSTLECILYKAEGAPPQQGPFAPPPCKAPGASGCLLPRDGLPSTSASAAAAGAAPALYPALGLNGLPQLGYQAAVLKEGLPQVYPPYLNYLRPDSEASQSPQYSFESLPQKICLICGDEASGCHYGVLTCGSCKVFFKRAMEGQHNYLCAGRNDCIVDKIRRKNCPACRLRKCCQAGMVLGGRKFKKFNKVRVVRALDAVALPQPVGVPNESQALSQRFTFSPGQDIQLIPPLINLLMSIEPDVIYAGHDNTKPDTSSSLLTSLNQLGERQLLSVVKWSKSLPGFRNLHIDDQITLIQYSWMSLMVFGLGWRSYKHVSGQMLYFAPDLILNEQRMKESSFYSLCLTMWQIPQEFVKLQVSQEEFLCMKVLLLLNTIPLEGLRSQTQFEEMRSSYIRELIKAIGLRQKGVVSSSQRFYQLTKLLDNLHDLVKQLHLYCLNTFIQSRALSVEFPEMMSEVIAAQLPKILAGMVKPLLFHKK

[1] = biological target: T2, human sex-hormone-binding globulin (SHBG) (Homo sapiens, UniProt P04278); conditions: cited from earlier work
T2 sequence (P04278 30-402): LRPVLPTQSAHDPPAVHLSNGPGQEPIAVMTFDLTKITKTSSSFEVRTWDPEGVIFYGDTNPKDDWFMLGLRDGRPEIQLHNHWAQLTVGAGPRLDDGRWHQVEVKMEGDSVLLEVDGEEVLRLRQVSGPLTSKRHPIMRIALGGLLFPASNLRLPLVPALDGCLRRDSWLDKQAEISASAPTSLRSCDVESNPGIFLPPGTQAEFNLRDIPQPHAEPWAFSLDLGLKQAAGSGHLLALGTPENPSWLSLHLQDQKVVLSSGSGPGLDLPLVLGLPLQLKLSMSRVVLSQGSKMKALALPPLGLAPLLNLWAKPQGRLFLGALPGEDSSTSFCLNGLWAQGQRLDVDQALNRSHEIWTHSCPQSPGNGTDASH

estrogen receptor (ER) = conditions: ovariectomized non-pregnant sheep, myometrium and endometrium; cited from earlier work
[2] = test system: non-pregnant, oophorectomized ewes; assay: Restoration of the uterine blood flow response after continuous infusion, second phase; format: in vivo, sheep; conditions: after continuous infusion 220 μg day 15-28
Protocol: In the second phase of the study an ultra-low dose of estrogen (0.01 μg/Kg) was administered to try to restore the response, which was most diminished in the first phase of the study by continuous infusion. The second phase of the study involved continuous infusion of 220 μg of estradiol from day 15 to 28 in another 15 sheep followed by randomization into 3 groups (See FIG. 1). […] UBF was measured throughout the study.

[3] = test system: non-pregnant, oophorectomized ewes; assay: Uterine blood flow, MAP and heart rate during bolus vs continuous estradiol, first phase; format: in vivo, sheep
Protocol: In the study, fifteen non-pregnant, oophorectomized ewes were implanted with doppler flow probes (Transonic System, Ithaca, N.Y.) on the uterine artery and indwelling catheters were placed in the femoral artery and vein for mean arterial pressure (MAP) measurements and estrogen administration respectively. All animals were oophorectomized. MAP, heart rate (HR) and uterine blood flow (UBF) were recorded for 30 minutes daily for 14 days after at least 60 minutes of adaptation in the recording room. A baseline for each parameter of each sheep was established by averaging values obtained from day 8 through 14 after the last surgery. On day 14, sheep were divided randomly into three groups consisting of 5 animals each. […] The third group (Control) served as a vehicle control. Treatment groups received estrogen from day 15 through 28 and parameters were recorded daily throughout this period. […] It seems that none of the outcome parameters achieved a steady state during the study period.

[4] = continuous iv infusion 220 μg daily

SMILES	binding to progesterone receptors (progesterone receptors)	affinity for SHBG [1]	effect on ER expression at physiologic concentrations (estrogen receptor (ER))	effect on ER expression at supra-physiologic doses (estrogen receptor (ER))	UBF response to standard bolus doses after 2 days of ultra-low boluses ([2]; 0.01 μg/Kg bolus 2 days, then standard daily bolus (printed 1 μg/Kg) for 3 days (FIG. 4))	UBF response to standard bolus doses after 2 days of standard boluses ([2]; 10 μg/Kg bolus 2 days, then 10 μg/Kg for 3 more days (FIG. 3))	UBF response to standard bolus doses after 2 days of saline boluses ([2]; saline 2 days, then 10 μg/Kg bolus daily for 3 days (FIG. 2))	HR on the first day [3, 4]	HR on the second day [3, 4]	MAP decrease in the first two days [3, 4]	increase in UBF at two days of treatment [3, 4]	UBF for the next 12 days of the study ([3]; continuous iv infusion 220 μg daily, after day 2 of treatment)	MAP during the rest of the study ([3]; continuous iv infusion 220 μg daily, after the first two days)	UBF after 24 hours (before the next bolus) ([3]; daily single iv bolus 10 μg/kg)	daily intermittent increase in HR ([3]; daily single iv bolus 10 μg/kg)	effect on MAP (mean arterial pressure) ([3]; daily single iv bolus 10 μg/kg)	HR decrease to levels below the baseline after 24 hours ([3]; daily single iv bolus 10 μg/kg, 24 hours after bolus)	increase in UBF (uterine blood flow), start of gradual increase ([3]; daily single iv bolus 10 μg/kg, start of the gradual increase in the first 4 days, vs baseline)
C#C[C@]1(OC(C)=O)CC[C@H]2[C@@H]3CCC4=CC(=NO)CC[C@@H]4[C@H]3CC[C@@]21CC (mixture of isomers) [norgestimate]	bind to progesterone receptors	lack of affinity	–	–	–	–	–	–	–	–	–	–	–	–	–	–	–	–
C[C@]12CC[C@@H]3c4ccc(O)cc4CC[C@H]3[C@@H]1CC[C@@H]2O [17β-estradiol]	–	–	promoted ER expression	inhibited ER expression	complete response	no response at all	partial response	increased significantly	dropped to baseline levels	8.6±4%	1854.2±527.9%	returned almost to baseline levels	gradually increased to baseline levels	returned almost to baseline levels	15-20%	did not affect MAP	8-10%	489±206.5%
C#C[C@]1(O)CC[C@H]2[C@@H]3CCC4=CCCC[C@@H]4[C@H]3C(=C)C[C@@]21CC [desogestrel, 13-ethyl-11-methylene-18,19-dinor-17 alpha-pregn-4-en-20-yn-17-ol]	bind to progesterone receptors	lack of affinity	–	–	–	–	–	–	–	–	–	–	–	–	–	–	–	–
